Here are results for 17 molecules from patent publication US9062051B2, “Compounds and pharmaceutical compositions thereof for the treatment of proliferative disorders” (GALAPAGOS NV, priority 2014, dated 2015).

The target of data set [1] is T1, EphB4 (UniProt Ref: Q541P7) (Homo sapiens, UniProt P54760).
T1 construct: purchased Reaction Biology
T1 sequence (P54760 16-987): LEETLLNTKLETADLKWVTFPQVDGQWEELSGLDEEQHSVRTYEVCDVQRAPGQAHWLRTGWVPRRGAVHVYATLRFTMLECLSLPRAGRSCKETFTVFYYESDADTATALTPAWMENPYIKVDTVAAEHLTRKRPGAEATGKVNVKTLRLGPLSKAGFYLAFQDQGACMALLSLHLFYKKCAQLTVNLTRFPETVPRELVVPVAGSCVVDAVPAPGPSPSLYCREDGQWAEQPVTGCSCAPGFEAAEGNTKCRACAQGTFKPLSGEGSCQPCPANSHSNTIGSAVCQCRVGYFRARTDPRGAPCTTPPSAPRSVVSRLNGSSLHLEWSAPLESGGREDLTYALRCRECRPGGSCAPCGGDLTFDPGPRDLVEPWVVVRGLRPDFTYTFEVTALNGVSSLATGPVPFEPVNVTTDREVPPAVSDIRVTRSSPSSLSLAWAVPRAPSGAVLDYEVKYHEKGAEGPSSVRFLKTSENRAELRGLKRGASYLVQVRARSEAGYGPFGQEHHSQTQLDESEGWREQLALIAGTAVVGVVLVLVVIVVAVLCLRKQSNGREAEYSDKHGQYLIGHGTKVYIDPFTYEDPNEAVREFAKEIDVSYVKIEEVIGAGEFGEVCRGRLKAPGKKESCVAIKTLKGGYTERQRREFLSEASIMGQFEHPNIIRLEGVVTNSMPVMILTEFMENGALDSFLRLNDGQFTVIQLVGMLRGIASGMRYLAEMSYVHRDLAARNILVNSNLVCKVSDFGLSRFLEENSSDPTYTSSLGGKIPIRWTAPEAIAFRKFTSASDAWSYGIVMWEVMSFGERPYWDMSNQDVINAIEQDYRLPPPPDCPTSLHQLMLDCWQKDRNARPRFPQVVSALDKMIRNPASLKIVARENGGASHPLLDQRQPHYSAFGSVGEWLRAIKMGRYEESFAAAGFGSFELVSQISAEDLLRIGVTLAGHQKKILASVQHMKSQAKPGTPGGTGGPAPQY
The experiment in a line: EphB4 assay (Reaction Biology HotSpot radioactive kinase assay). Type of data set: biochemical. As to conditions: ATP 10 μM; read-out: EphB4 potency IC50. How it is done: Inhibition of EphB4 (UniProt Ref: Q541P7) by a test compound is determined by a commercially available Reaction Biology proprietary nanoliter radioactive HotSpot^SM assay (Reaction Biology, One great valley parkway, Suite 2, Malvern Pa., 19355, USA). The principle of the assay consists of the measurement of incorporated ^33P into poly[Glu:Tyr] (4:1) (0.2 mg/mL) when the substrate is phosphorylated by the enzyme using [^33P]-γ-ATP and ATP (10 μM).
To determine the IC50, a serial dilution of compound is tested starting from 10 or 3 μM (highest dilution) with a 1/3 dilution.

Data set [2] in a line: Pharmacokinetics in rats (exposure, AUC). Format: in vivo, male Sprague Dawley rats. As to conditions: po; for AUC: male, Sprague Dawley, rat, plasma. As to the method: This study is performed with 6 naïve male Sprague Dawley rats (180-200 g, 6-8 weeks old). Rats are obtained from Janvier, Le Genest St Isle, France.
A controlled environment is maintained in the room with optimal conditions of approximately 15 air changes per hour, a temperature of 22±2 C, a relative humidity of 30-70% and a 12 hour light/dark cycle
Pelleted diet for rodents (UAR A04C-10) is used and is provided ad libitum. Before p.o. dosing, the animals are deprived of food for at least 12 hours before compound administration and 4 hours after administration. All animals had free access to tap water.
Two days before the dosing day, the implantation of a catheter in the jugular vein is done under gaseous anaesthesia with isoflurane.
Rats are dosed intravenously with test compound via a bolus in the tail vein with a dose level of 1 mg/kg. […]
The i.v. bolus and the oral administration are given a dose volume of 5 mL/kg.
From all animals approximately 200 μL blood samples are collected via the catheter and placed into tubes containing Li-heparin as anticoagulant. Blood samples are collected at the various time points (i.v.: 0.05, 0.25, 0.5, 1, 3, 5, 8 and 24 hours after dosing; p.o.: 0.25, 0.5, 1, 3, 5, 8 and 24 hours after dosing).
Blood is kept on ice. Within 1 hour after sampling, blood is centrifuged at 5,000 rpm for 10 min at 4° C. Immediately after centrifugation, the resulting plasma samples are collected into polypropylene tubes and are kept frozen at −20° C. pending bioanalysis.
Plasma samples are assayed by LC-MS/MS. Plasma proteins are precipitated with an excess of methanol containing the internal standard and the corresponding supernatant is injected on a C18 column. Analytes are eluted out the HPLC system by increasing the percentage of the organic mobile phase. An API4000 mass spectrometer (AB Sciex™) is used for the detection and quantification.
Pharmacokinetic parameters are calculated by non-compartmental analysis using WinNonlin® software (Pharsight, version 5.2).

Data set [3] addresses T2, EphA2 (UniProt Ref: P29317) (Homo sapiens, UniProt P29317).
T2 construct: purchased Reaction Biology
Kind of data set: EphA2 assay (Reaction Biology HotSpot radioactive kinase assay). Format: biochemical. As to conditions: ATP 10 μM; read-out: EphA2 potency IC50. Put shortly:
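Radiometric HotSpot assay measuring ^33P incorporation from [^33P]-γ-ATP into poly[Glu:Tyr] (4:1) (0.2 mg/mL) with 10 μM ATP. IC50 from serial 1/3 dilutions starting at 10 or 3 μM.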

SMILES strings stand for the structures.

T2 sequence (P29317 24-976): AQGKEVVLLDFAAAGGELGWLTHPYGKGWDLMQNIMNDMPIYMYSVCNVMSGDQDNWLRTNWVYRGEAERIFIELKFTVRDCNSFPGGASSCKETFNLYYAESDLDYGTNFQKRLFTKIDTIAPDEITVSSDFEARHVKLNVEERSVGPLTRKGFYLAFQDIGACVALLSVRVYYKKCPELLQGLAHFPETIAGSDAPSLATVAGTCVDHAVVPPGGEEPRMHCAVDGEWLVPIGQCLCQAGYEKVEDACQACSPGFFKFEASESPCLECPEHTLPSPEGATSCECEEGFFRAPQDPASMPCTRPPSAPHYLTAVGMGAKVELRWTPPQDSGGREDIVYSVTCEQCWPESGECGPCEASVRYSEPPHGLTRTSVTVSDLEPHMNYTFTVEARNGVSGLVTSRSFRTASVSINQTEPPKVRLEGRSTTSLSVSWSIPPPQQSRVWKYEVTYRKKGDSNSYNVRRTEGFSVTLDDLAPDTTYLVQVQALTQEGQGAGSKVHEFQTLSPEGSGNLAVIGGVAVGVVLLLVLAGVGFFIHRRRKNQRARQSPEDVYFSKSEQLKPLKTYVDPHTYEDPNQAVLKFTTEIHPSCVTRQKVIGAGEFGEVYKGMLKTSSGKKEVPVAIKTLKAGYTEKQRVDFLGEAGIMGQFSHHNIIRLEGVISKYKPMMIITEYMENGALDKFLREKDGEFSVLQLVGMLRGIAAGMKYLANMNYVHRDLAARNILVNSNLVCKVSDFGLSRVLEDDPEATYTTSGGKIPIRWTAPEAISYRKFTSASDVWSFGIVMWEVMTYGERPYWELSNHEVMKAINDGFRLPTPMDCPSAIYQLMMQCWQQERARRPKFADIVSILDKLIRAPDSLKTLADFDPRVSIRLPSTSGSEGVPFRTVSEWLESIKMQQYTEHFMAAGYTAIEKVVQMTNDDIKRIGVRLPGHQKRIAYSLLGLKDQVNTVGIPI

A word on the IC50: it is the midpoint of a concentration-inhibition curve. As for `CCc1n[nH]c2nc(-c3cc(NC(=O)c4cc(OC)cc(C(F)(F)F)c4)cnc3C)ccc12` [Compound 49, N-[5-(3-Ethyl-1H-pyrazolo[3,4-b]pyridin-6-yl)-6-methyl-pyridin-3-yl]-3-methoxy-5-trifluoromethyl-benzamide], in data set [1], the IC50 was > 100 nM.

A word on the AUC: it is the area under the concentration-time curve, a measure of exposure. Lower therefore signals less exposure. Regarding `COc1cc(OC)cc(C(=O)Nc2cnc(C)c(-c3ccc4c(C)n[nH]c4n3)c2)c1` [Compound 17, 3,5-Dimethoxy-N-[6-methyl-5-(3-methyl-1H-pyrazolo[3,4-b]pyridin-6-yl)-pyridin-3-yl]-benzamide], the area under the curve (AUC) in data set [2] (5 mg/kg) was determined as 1230 ng·h/mL. The IC50 in data set [1] was 25 to 50 nM; in data set [3], 50 to 100 nM.

Molecule `Cc1ccc(NC(=O)c2cccc(C(F)(F)F)c2)cc1-c1ccc2c(C(C)O)n[nH]c2n1` (stereo not shown) [Compound 35, N-{3-[3-(1-Hydroxy-ethyl)-1H-pyrazolo[3,4-b]pyridin-6-yl]-4-methyl-phenyl}-3-trifluoromethyl-benzamide] gave an AUC in data set [2] (5 mg/kg) of 3570 ng·h/mL. Moreover, the IC50 in data set [1] and in data set [3] was 25 to 50 nM each time.

Take `CCc1n[nH]c2nc(-c3cc(NC(=O)c4cc(C)cc(C)c4)cnc3C)ccc12` [Compound 50, N-[5-(3-Ethyl-1H-pyrazolo[3,4-b]pyridin-6-yl)-6-methyl-pyridin-3-yl]-3,5-dimethyl-benzamide]: in data set [2] (5 mg/kg), the AUC was found to be 1270 ng·h/mL. Moreover, the IC50 lay in the range of 0.01 to 25 nM in data set [1] and 50 to 100 nM in data set [3].

In the case of `CCc1n[nH]c2nc(-c3cc(NC(=O)c4cc(C)cc(OCCN5CCOCC5)c4)ccc3C)ccc12` [Compound 20, N-[3-(3-Ethyl-1H-pyrazolo[3,4-b]pyridin-6-yl)-4-methyl-phenyl]-3-methyl-5-(2-morpholin-4-yl-ethoxy)-benzamide], the IC50 in data set [1] and in data set [3] was 0.01 to 25 nM each time.

Regarding `COc1cc(OC)cc(C(=O)Nc2ccc(C)c(-c3ccc4c(C)n[nH]c4n3)c2)c1` [Compound 11, 3,5-Dimethoxy-N-[4-methyl-3-(3-methyl-1H-pyrazolo[3,4-b]pyridin-6-yl)-phenyl]-benzamide], the IC50 in data set [1] and in data set [3] was 0.01 to 25 nM in each case.

As for `Cc1ccc(C(=O)Nc2cccc(C(F)(F)F)c2)cc1-c1ccc2c(C(O)CN3CCOCC3)n[nH]c2n1` (stereo not shown) [Compound 5, 3-[3-(1-Hydroxy-2-morpholin-4-yl-ethyl)-1H-pyrazolo[3,4-b]pyridin-6-yl]-4-methyl-N-(3-trifluoromethyl-phenyl)-benzamide], the IC50 in data set [1] lay in the range of 25 to 50 nM; in data set [3] it was 0.01 to 25 nM.

As for `COc1cc(OC)cc(C(=O)Nc2ccc(C)c(-c3ccc4c(C(C)O)n[nH]c4n3)c2)c1` (stereo not shown) [Compound 9, N-{3-[3-(1-Hydroxy-ethyl)-1H-pyrazolo[3,4-b]pyridin-6-yl]-4-methyl-phenyl}-3,5-dimethoxy-benzamide], the AUC in data set [2] (5 mg/kg) is 3260 ng·h/mL. Besides, the IC50 in data set [1] and in data set [3] was 25 to 50 nM each time.

On to `Cc1ccc(NC(=O)c2cccc(N(C)C)c2)cc1-c1ccc2c(C(O)CN3CCOCC3)n[nH]c2n1` (stereo not shown) [Compound 6, 3-Dimethylamino-N-{3-[3-(1-hydroxy-2-morpholin-4-yl-ethyl)-1H-pyrazolo[3,4-b]pyridin-6-yl]-4-methyl-phenyl}-benzamide], for which the AUC in data set [2] (5 mg/kg) was 1790 ng·h/mL. Moreover, the IC50 was in the range of 25 to 50 nM in data set [1] and 50 to 100 nM in data set [3].

Take `COc1cc(OC)cc(C(=O)Nc2ccc(C)c(-c3ccc4c(C(O)CN5CCOCC5)n[nH]c4n3)c2)c1` (stereo not shown) [Compound 4, N-{3-[3-(1-Hydroxy-2-morpholin-4-yl-ethyl)-1H-pyrazolo[3,4-b]pyridin-6-yl]-4-methyl-phenyl}-3,5-dimethoxy-benzamide]: in data set [2] (5 mg/kg, formulated in methylcellulose 5% in water), the AUC came out at 407 ng·h/mL. Moreover, the results for the concentration for half-maximal inhibition (IC50) in data set [1] and in data set [3] were 25 to 50 nM and > 100 nM, respectively.

With `CCc1n[nH]c2nc(-c3cc(NC(=O)c4cc(OC)cc(OC)c4)cnc3C)ccc12` [Compound 13, N-[5-(3-Ethyl-1H-pyrazolo[3,4-b]pyridin-6-yl)-6-methyl-pyridin-3-yl]-3,5-dimethoxy-benzamide], the AUC in data set [2] (5 mg/kg) amounted to 1420 ng·h/mL. Besides, the IC50 in data set [1] is 25 to 50 nM; in data set [3], 50 to 100 nM.

For the molecule `Cc1cc(C)cc(C(=O)Nc2ccc(C)c(-c3ccc4c(CO)n[nH]c4n3)c2)c1` [Compound 16, N-[3-(3-Hydroxymethyl-1H-pyrazolo[3,4-b]pyridin-6-yl)-4-methyl-phenyl]-3,5-dimethyl-benzamide], the concentration for half-maximal inhibition (IC50) in data set [1] and in data set [3] was 0.01 to 25 nM each time.

As to `Cc1ccc(NC(=O)c2cccc(C(F)(F)F)c2)cc1-c1ccc2c([C@H](C)O)n[nH]c2n1` [Compound 55, N-{3-[3-((S)-1-Hydroxy-ethyl)-1H-pyrazolo[3,4-b]pyridin-6-yl]-4-methyl-phenyl}-3-trifluoromethyl-benzamide], the AUC worked out at 1060 ng·h/mL in data set [2] (3 mg/kg), 965 ng·h/mL in data set [2] (5 mg/kg) and 13600 ng·h/mL in data set [2] (30 mg/kg). The IC50 in data set [1] and in data set [3] was 0.01 to 25 nM each time.

In the case of `CCc1n[nH]c2nc(-c3cc(NC(=O)c4cc(C)cc(OCCOC)c4)ccc3C)ccc12` [Compound 21, N-[3-(3-Ethyl-1H-pyrazolo[3,4-b]pyridin-6-yl)-4-methyl-phenyl]-3-(2-methoxy-ethoxy)-5-methyl-benzamide], the IC50 in data set [1] lay in the range of 0.01 to 25 nM; in data set [3], 25 to 50 nM.

With `Cc1cccc(C(=O)Nc2ccc(C)c(-c3ccc4c(C(O)CN5CCOCC5)n[nH]c4n3)c2)c1` (stereo not shown) [Compound 3, N-{3-[3-(1-Hydroxy-2-morpholin-4-yl-ethyl)-1H-pyrazolo[3,4-b]pyridin-6-yl]-4-methyl-phenyl}-3-methyl-benzamide], in data set [2] (5 mg/kg), the “Exposure AUC” value stood at 159 ng·h/mL and the AUC amounted to 214 ng·h/mL. Moreover, the IC50 in data set [1] is 0.01 to 25 nM.

In data set [2] (5 mg/kg), `COc1cc(OC)cc(C(=O)Nc2ccc(C)c(-c3ccc4c(C5(O)CC5)n[nH]c4n3)c2)c1` [Compound 29, N-{3-[3-(1-Hydroxy-cyclopropyl)-1H-pyrazolo[3,4-b]pyridin-6-yl]-4-methyl-phenyl}-3,5-dimethoxy-benzamide] registered an AUC of 5840 ng·h/mL. Also, in data set [3], the IC50 was in the range of 50 to 100 nM.

In data set [2] (5 mg/kg), `Cc1ccc(NC(=O)c2cccc(C(F)(F)F)c2)cc1-c1cc(C)c2c(N)n[nH]c2n1` [Compound A, N-(3-(3-amino-4-methyl-1H-pyrazolo[3,4-b]pyridin-6-yl)-4-methylphenyl)-3-(trifluoromethyl)benzamide] yielded an area under the curve (AUC) of 273 ng·h/mL.
